In BindingDB's records for doi:10.1016/j.bioorg.2015.05.008 (Universidade Do Porto, 2015):

Columns and labels:
Assay in all cases: Radioligand Binding Assay
Adenosine receptor A1 = biological target: T1, Adenosine receptor A1 (Homo sapiens, UniProt P30542)
T1 sequence (P30542 whole entry): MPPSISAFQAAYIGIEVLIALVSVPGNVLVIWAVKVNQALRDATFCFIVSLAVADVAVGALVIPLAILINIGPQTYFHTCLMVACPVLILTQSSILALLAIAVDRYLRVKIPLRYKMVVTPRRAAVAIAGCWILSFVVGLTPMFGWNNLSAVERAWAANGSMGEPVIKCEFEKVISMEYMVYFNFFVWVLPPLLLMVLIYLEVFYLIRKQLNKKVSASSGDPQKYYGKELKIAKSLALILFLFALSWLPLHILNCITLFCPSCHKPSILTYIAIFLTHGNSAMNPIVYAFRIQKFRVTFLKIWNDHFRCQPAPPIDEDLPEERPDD
Experimental: (§1) The radioligands used were 1 nM (2R,3R,4S,5R)-2-(2-chloro-6-cyclopentylamino-purin-9-yl)-5-hydroxymethyl-tetrahydro-3,4-diol ([3H]CCPA) for hA1, 10 nM (1-(6-amino-9H-purin-9-yl)-1-deoxy-N-ethyl-β-D-ribofuronamide) ([3H]NECA) for hA2a, and 1 nM 2-(1-hexynyl)-N6-methyladenosine [3H] ([3H]HEMADO) for hA3 receptors.

Adenosine receptor A3 = biological target: T2, Adenosine receptor A3 (Homo sapiens, UniProt P0DMS8)
T2 sequence (P0DMS8 whole entry): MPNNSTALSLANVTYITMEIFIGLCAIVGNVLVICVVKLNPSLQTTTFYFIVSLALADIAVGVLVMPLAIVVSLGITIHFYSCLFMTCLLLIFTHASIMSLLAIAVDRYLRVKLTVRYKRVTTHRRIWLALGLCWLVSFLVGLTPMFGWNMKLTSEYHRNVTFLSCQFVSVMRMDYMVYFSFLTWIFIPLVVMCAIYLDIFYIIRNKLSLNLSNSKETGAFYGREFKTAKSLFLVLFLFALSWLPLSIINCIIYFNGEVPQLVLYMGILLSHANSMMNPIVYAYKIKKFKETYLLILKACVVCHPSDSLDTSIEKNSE
Experimental: as §1

Adenosine receptor A2a = Adenosine receptor A2a (Homo sapiens, UniProt P29274)
Experimental: as §1

Adenosine receptor A2a, sequence (P29274 whole entry): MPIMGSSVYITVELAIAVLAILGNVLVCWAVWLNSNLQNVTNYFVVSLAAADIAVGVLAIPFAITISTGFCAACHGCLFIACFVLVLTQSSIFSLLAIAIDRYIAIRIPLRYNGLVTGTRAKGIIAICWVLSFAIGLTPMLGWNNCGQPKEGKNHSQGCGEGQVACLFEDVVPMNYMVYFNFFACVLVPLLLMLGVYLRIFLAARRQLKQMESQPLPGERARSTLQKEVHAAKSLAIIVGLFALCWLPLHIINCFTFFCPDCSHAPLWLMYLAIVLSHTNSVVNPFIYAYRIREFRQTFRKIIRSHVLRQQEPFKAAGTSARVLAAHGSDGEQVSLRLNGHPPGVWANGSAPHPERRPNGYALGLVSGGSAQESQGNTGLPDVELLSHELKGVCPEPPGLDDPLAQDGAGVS

SMILES	Ki (Adenosine receptor A1) [µM]	Ki (Adenosine receptor A3) [µM]	Ki (Adenosine receptor A2a) [µM]
O=C(Nc1cc2ccccc2oc1=O)c1ccccc1 [N-(2-oxidanylidenechromen-3-yl)benzamide]	> 100	3.24	> 100
C=CC(=O)Nc1cc2ccccc2oc1=O [N-(Coumarin-3-yl)acrylamide (2)]	8.95	> 100	12.2
C=CC(=O)Nc1c(O)c2ccccc2oc1=O [N-(4-Hydroxycoumarin-3-yl)acrylamide (3)]	> 100	> 100	> 100
O=C(Nc1c(O)c2ccccc2oc1=O)c1ccccc1 [N-(4-hydroxycoumarin-3-yl)benzamide (5)]	> 100	> 100	> 100
O=C(Nc1cc2ccccc2oc1=O)c1ccco1 [N-(Coumarin-3-yl)furan-2-carboxamide (8)]	5.18	9.79	> 100
O=C(Nc1cc2ccccc2oc1=O)c1cccs1 [N-(coumarin-3-yl)thiophene-2-carboxamide (7)]	16.2	> 60	> 100
O=C(Nc1cc2ccccc2oc1=O)c1cccnc1 [N-(coumarin-3-yl)nicotinamide (6)]	> 100	> 100	> 100
